Patent US20170252327A1, “Methods of Modulating Gastrointestinal Tract Flora Levels with Alkaline Phosphatase” (priority 2008, published 2017)

How the values were obtained:
gut microbiota [1] = assay: Restoration of gut flora after ampicillin treatment with or without cIAP (stool culture in LB media); format: in vivo, mice (C57BL/6)
Procedure: An experiment was performed in which five mice (C57BL/6) of each test group, approximately 6 weeks old, were treated with 1 mg/ml of the antimicrobial drug ampicillin, in the presence or absence of calf intestinal alkaline phosphatase (cIAP) (New England Biolabs, Ipswich, Mass.). Ampicillin was administered orally with the animal's drinking water at a concentration of 1 mg/ml, and 250 units of cIAP were administered twice daily as oral gavage. Individual stool samples of each group were cultured in LB media each day and analyzed for the presence/absence of the gut flora. The gut flora of mice before receiving the antibiotic was considered as a baseline control for normal gastrointestinal tract flora (present in all samples). […] Both treatment groups received ampicillin for 10 days.

gut microbiota [2] = assay: Restoration of gut flora after streptomycin treatment with or without cIAP (stool culture in LB media); format: in vivo, mice (C57BL/6)
Procedure: To address the role of intestinal alkaline phosphatase on the gastrointestinal tract flora of mammals, an experiment was performed in which five approximately six week old mice (C57BL/6) of each test group were treated with an antimicrobial drug, streptomycin, in the presence or absence of calf intestinal alkaline phosphatase (cIAP) (Sigma, St. Louis, Mo.). Both streptomycin (5 mg/ml) and cIAP (50 units/ml) were administered orally with the animal's drinking water. Individual stool samples of each group were cultured in LB media each day and analyzed for the presence/absence of gut flora. The gastrointestinal tract flora of mice before antibiotic treatment was considered as a baseline control for the normal gut flora (present in all samples).

[3] = system: Gram-negative bacteria (mostly E. coli); assay: Restoration of commensal Gram-negative gut flora in streptomycin-treated WT mice with or without cIAP (MacConkey agar); format: in vivo; conditions: streptomycin 5 mg/ml in drinking water
Procedure: Accordingly, experiments were performed in which groups of WT mice (n=10) were treated orally with the antibiotic streptomycin in the presence or absence of cIAP. Streptomycin (5 mg/ml) and cIAP (200 U/ml for cIAP^+ Group, n=5) or ‘vehicle for cIAP’ (20 μl/ml ‘vehicle for cIAP’ (50 mM KCl, 10 mM Tris-HCl (pH 8.2), 1 mM MgCl, 0.1 mM ZnCl2, and 50% glycerol) in drinking water for control cIAP^− Group, n=5) were administered in the animals' drinking water and fecal cultures were performed.
Individual stool samples were cultured each day on MacConkey agar media. […] After discontinuation of antibiotic treatment, the time of appearance (Day) of Gram-negative bacteria (mostly E. coli, occasionally P. mirabilis) in stool samples was recorded for each animal. The experiment was repeated six times, which raised the total number of animals in each group to 39 (n=39), however, duration of each experiment varied (7-35 days). Data was compiled from all six experiments and the number of animals with E. coli in each group on a specific day was recorded.

IAP = assay: Stool IAP activity in PTU-treated mice given T3 (hyperthyroid); format: in vivo
Description: In WT mice, IAP (Akp3 isoform) is expressed at postnatal Day 15 (Narisawa et al., Am J Physiol Gastrointest Liver Physiol, 293:G1068, 2007), while IAP-KO mice lack this enzyme for their entire life. However, a variety of pathophysiological conditions can lead to altered IAP expression in adult WT animals, which may affect their intestinal flora. Accordingly, stool samples of hypothyroid and hyperthyroid mice were examined, since IAP is known to be silenced in hypothyroid animals and dramatically over-expressed in hyperthyroid animals (Hodin et al., Surgery, 120:138, 1996; Malo et al., Mol Endocrinol, 18:1941, 2004). For 32 weeks, groups of mice (n=5) were given water containing 0.05% propylthiouracil (PTU) in order to induce hypothyroidism by inhibiting both thyroid hormone biosynthesis and peripheral T4 deiodination (Cooper et al., Biochem Pharmacol, 33:3391, 1984). After 6 weeks of PTU treatment, one group received a daily i.p. injection of T3 (30 μg per 100 gm body weight, hyperthyroid) and the other group received a daily i.p. injection of normal saline (0.9% NaCl, hypothyroid) for 26 weeks (Hodin et al., Surgery, 120:138, 1996).
IAP activity was determined following the protocol as described by Baykov et al. (Anal Biochem, 171:266, 1988). Briefly, individual stool samples were homogenized in water (10 mg/100 μl), centrifuged and supernatant was collected. Then 25 μl of the stool supernatant (or aqueous cIAP solution) were mixed with 175 μl phosphatase assay reagent containing 5 mM of p-nitrophenyl phosphate (pNPP) followed by determining optical density at 405 nm after a specific time period when the samples usually turned yellow due to release of p-nitrophenol. Protein concentrations of stool supernatants were measured using a kit from Bio-Rad Laboratories (Hercules, Calif.). The specific activity of the enzyme, expressed as pmole pNPP hydrolyzed per minute per μg of protein, and CFU per gm of stool +/− SEM were determined and the results are shown in FIG. 3. […]

## CC1(C)S[C@@H]2[C@H](NC(=O)[C@H](N)c3ccccc3)C(=O)N2[C@H]1C(=O)O [Ampicillin alone, ampicillin]
Gut microbiota [1]; Day 1
  Bacteria in the stool: Present
Gut microbiota [1]; Day 2
  Bacteria in the stool: Absent
Gut microbiota [1]; Day 3
  Bacteria in the stool: Absent
Gut microbiota [1]; Day 4
  Bacteria in the stool: Absent
Gut microbiota [1]; Day 5
  Bacteria in the stool: Absent
Gut microbiota [1]; Day 6
  Bacteria in the stool: Absent
Gut microbiota [1]; Day 7
  Bacteria in the stool: Absent
Gut microbiota [1]; Day 8
  Bacteria in the stool: Absent
Gut microbiota [1]; Day 9
  Bacteria in the stool: Absent
Gut microbiota [1]; Day 10
  Bacteria in the stool: Absent
Gut microbiota [1]; Day 11
  Bacteria in the stool: Absent
Gut microbiota [1]; Day 12
  Bacteria in the stool: Absent
Gut microbiota [1]; Day 13
  Bacteria in the stool: Absent
Gut microbiota [1]; Day 14
  Bacteria in the stool: Absent
Gut microbiota [1]; Day 15
  Bacteria in the stool: Absent
Gut microbiota [1]; Day 16
  Bacteria in the stool: Absent
Gut microbiota [1]; Day 17
  Bacteria in the stool: Absent
Gut microbiota [1]; Day 18
  Bacteria in the stool: Absent
Gut microbiota [1]; Day 19
  Bacteria in the stool: Absent
Gut microbiota [1]; Day 20
  Bacteria in the stool: Absent
Gut microbiota [1]; Day 21
  Bacteria in the stool: Absent
Gut microbiota [1]; Day 22
  Bacteria in the stool: Absent
Gut microbiota [1]; Day 23
  Bacteria in the stool: Absent
Gut microbiota [1]; Day 24
  Bacteria in the stool: Present
Gut microbiota [1]; ampicillin for 10 days
  Day at which stools showed normal gut flora: 24 days
  No bacterial growth in stools until: 23 days

## [H]/N=C(/N)N[C@H]1[C@H](O)[C@@H](O)[C@H](O[C@@H]2O[C@@H](C)[C@](O)(C=O)[C@H]2O[C@@H]2O[C@@H](CO)[C@H](O)[C@@H](O)[C@@H]2NC)[C@@H](N/C(N)=N\[H])[C@@H]1O [Streptomycin alone, streptomycin]
Gut microbiota [2]; 24 hours after discontinuation of streptomycin
  Bacterial growth in stools: no bacterial growth
Gut microbiota [2]; Day 1
  Bacteria in the stool: Absent
Gut microbiota [2]; Day 2
  Bacteria in the stool: Absent
Gut microbiota [2]; Day 3
  Bacteria in the stool: Absent
Gut microbiota [2]; Day 4
  Bacteria in the stool: Absent
Gut microbiota [2]; Day 5
  Bacteria in the stool: Absent
Gut microbiota [2]; Day 6
  Bacteria in the stool: Absent
Gut microbiota [2]; Day 7
  Bacteria in the stool: Absent
Gut microbiota [2]; Day 8
  Bacteria in the stool: Absent
Gut microbiota [2]; Day 9
  Bacteria in the stool: Absent
Gut microbiota [2]; Day 10
  Bacteria in the stool: Present
Gut microbiota [2]; after streptomycin for 24 hours
  Time stools remained sterile: up to nine
Gut microbiota [2]; streptomycin for 24 hours
  Day at which stools showed signs of the normal gastrointestinal tract flora: 10 days
[3]
  Time to elimination of aerobic Gram-negative organisms in all animals: ≤ 24 h

## N[C@@H](Cc1cc(I)c(Oc2ccc(O)c(I)c2)c(I)c1)C(=O)O [T3]
IAP; Week 32, hyperthyroid animals
  Stool IAP activity, higher compared to euthyroid animals: approximately 7 fold
  Stool IAP activity, higher compared to hypothyroid animals: ~15 fold
IAP; Weeks 12-32, daily i.p. T3
  IAP activity in stools: increased IAP activity
